Measured values taken from BindingDB's records for doi:10.7270/Q21G0K51 (University of Carthage, 2017).
pIC50: −log10 of the molar value.

Key:
[1] = biological target: Carboxylic ester hydrolase (Equus caballus, UniProt Q9N1N9); test: Cholinesterase Activity Assay
Description: (§1) The eight synthesized dialkyl-3-cyanopropylphosphates (3a-h) were dissolved in0.01 M dimethyl sulphoxide and then diluted in demineralized water to 1 mM and 0.1 mM.

Acetylcholinesterase = Acetylcholinesterase (Electrophorus electricus, UniProt O42275); test: Cholinesterase Activity Assay
Description: as §1

Chain of Carboxylic ester hydrolase (Q9N1N9 whole entry): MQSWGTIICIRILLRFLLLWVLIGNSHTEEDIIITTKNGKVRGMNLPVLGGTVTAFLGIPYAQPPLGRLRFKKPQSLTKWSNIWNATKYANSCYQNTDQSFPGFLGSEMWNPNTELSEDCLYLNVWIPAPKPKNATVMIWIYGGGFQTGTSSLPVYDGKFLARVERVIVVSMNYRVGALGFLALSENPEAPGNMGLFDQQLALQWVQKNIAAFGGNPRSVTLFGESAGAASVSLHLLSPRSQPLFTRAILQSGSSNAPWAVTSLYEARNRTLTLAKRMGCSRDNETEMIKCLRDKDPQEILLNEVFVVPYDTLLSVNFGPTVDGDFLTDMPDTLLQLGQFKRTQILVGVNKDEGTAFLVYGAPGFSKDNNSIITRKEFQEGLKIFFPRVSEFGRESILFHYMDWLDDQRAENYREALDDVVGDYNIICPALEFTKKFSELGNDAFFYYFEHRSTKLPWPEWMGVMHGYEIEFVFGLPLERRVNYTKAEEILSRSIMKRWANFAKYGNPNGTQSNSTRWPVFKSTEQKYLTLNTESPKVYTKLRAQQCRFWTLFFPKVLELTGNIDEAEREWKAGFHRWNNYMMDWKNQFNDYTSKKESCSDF
Chain of Acetylcholinesterase (O42275 whole entry): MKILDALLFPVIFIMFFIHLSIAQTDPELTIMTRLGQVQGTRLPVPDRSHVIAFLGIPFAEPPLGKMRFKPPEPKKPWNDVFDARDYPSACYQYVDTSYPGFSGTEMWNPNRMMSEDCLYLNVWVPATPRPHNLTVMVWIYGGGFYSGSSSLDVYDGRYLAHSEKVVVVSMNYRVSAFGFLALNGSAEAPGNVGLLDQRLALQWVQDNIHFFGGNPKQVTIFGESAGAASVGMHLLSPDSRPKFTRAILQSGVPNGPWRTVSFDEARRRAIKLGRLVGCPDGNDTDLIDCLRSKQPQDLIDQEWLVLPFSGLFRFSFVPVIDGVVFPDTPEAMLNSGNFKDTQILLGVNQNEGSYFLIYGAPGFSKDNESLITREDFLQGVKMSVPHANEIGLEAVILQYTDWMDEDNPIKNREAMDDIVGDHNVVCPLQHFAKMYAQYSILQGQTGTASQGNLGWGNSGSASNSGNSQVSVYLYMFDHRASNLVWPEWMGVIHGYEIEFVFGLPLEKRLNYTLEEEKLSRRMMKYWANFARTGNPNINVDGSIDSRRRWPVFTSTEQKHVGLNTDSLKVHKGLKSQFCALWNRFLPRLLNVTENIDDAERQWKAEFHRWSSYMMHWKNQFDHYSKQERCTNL

Structure (SMILES) | pIC50 [1] | pIC50 (Acetylcholinesterase)
CCOP(=O)(OCC)OC(CCC#N)c1ccc(OC)cc1 (stereo unspecified) [Diethyl-3-cyano-1-(4-methoxyphenyl)propylphosphate (3e)] | 4.68 | 4.27
CCOP(=O)(OCC)OC(CCC#N)c1ccc(C)cc1 (stereo unspecified) [Diethyl-3-cyano-1-p-tolylpropylphosphate (3c)] | 5.22 | 5.02
CCOP(=O)(OCC)OC(CCC#N)c1ccccc1 (stereo unspecified) [Diethyl-3-cyano-1-phenylpropylphosphate (3a)] | 4.74 | 4.47
CCOP(=O)(OCC)OC(c1ccccc1)C(C)CC#N (stereo unspecified) [Diethyl-3-cyano-2-methyl-1-phenylpropylphosphate (3g)] | 4.75 | 4.45
COc1ccc(C(CCC#N)OP(=O)(OC)OC)cc1 (stereo unspecified) [Dimethyl-3-cyano-1-(4-methoxyphenyl)propylphosphate (3f)] | 4.63 | 4.43
COP(=O)(OC)OC(CCC#N)c1ccc(C)cc1 (stereo unspecified) [Dimethyl-3-cyano-1-p-tolylpropylphosphate (3d)] | 4.80 | 4.76
COP(=O)(OC)OC(CCC#N)c1ccccc1 (stereo unspecified) [Dimethyl-3-cyano-1-phenylpropylphosphate (3b)] | 4.72 | 4.50
COP(=O)(OC)OC(c1ccccc1)C(C)CC#N (stereo unspecified) [Dimethyl-3-cyano-2-methyl-1-phenylpropylphosphate (3h)] | 4.69 | 4.53
